“Also recorded” adds a separate entry of the source. Where a name gives a salt, the structure may show the parent alone.
Assays:
Assay type in all cases: physicochemical
[1] = Thermodynamic aqueous solubility; conditions: for pH of saturated solution: water, after 24 hours equilibration
Method: Aqueous solubility was determined by suspending sufficient compound in 0.5 ml deionized water to give a maximum final concentration of 40 mg/mi of the parent free-form of the compound. The suspension was equilibrated at 25° C., on a Heidolph plate shaker set to 750 rpm for 24 hours. After equilibration, the appearance was noted and the pH of the saturated solution was measured. Samples forming suspensions were centrifuged for 4 min at 13,500 rpm. Samples were then filtered through a glass fiber C filter (particle retention 1.2 μm), before dilution with H2O as appropriate.
Quantitation was by HPLC (see Table 2 for parameters) with reference to a standard solution of approximately 0.15 mg/ml in DMSO. Different volumes of the standard, diluted and undiluted sample solutions were injected. The solubility was calculated using the peak areas determined by integration of the peak found at the same retention time as the principal peak in the standard injection. Analysis was performed on an AgilentHPl 100/Infinity II 1260 series system equipped with a diode array detector and using OpenLAB software.

[2] = Static storage stability at elevated temperature/humidity (XRPD, HPLC purity)
Method: XRPD diffractograms were collected on a Bruker D8 diffractometer using Cu Kα, radiation (40 kV, 40 mA) and a 0-20 goniometer fitted with a Ge monochromator. The incident beam passes through a 2.0 mm divergence slit followed by a 0.2 mm anti-scatter slit and knife edge. The diffracted beam passes through an 8.0 mm receiving slit with 2.5° Soller slits followed by the Lynxeye Detector. The software used for data collection and analysis was Diffrac Plus XRD Commander and Diffrac Plus EVA respectively.
XRPD diffractograms were collected on a PANalytical Empyrean diffractometer using Cu Kα, radiation (45 kV, 40 mA) in transmission geometry. A 0.5° slit, 4 mm mask and 0.04 rad Soller slits with a focusing mirror were used on the incident beam. A PIXcel3D detector, placed on the diffracted beam, was fitted with a receiving slit and 0.04 rad Soller slits. The software used for data collection was X'Pert Data Collector using X'Pert Operator Interface. The data were analyzed and presented using Diffrac Plus EVA or HighScore Plus.
Purity analysis was performed on an AgilentHP1100/Infinity 111260 series system equipped with a diode array detector and using OpenLAB software.

[3] = Gravimetric Vapour Sorption (GVS); conditions: for XRPD post-GVS: residue after GVS
Method: Sorption isotherms were obtained using a SMS DVS Intrinsic moisture sorption analyser, controlled by DVS Intrinsic Control software. The sample temperature was maintained at 25° C. by the instrument controls. The humidity was controlled by mixing streams of dry and wet nitrogen, with a total flow rate of 200 ml/min. The relative humidity was measured by a calibrated Rotronic probe (dynamic range of 1.0-100% RH), located near the sample. The weight change, (mass relaxation) of the sample as a function of % RH was constantly monitored by a microbalance (accuracy ±0.005 mg). Typically, 20-30 mg of sample was placed in a tared mesh stainless steel basket under ambient conditions. The sample was loaded and unloaded at 40% RH and 25° C. (typical room conditions). A moisture sorption isotherm was performed as outlined below (2 scans per complete cycle). The standard isotherm was performed at 25° C. at 10% RH intervals over a 0-90% RH range. Typically, a double cycle (4 scans) was carried out. Data analysis was carried out within Microsoft Excel using the DVS Analysis Suite. [table]

physchem = test: physchem
Description: There was insufficient residue to characterize these further.

[4] = 7 days / 1 week at 25° C./97% RH
[5] = 7 days / 1 week at 40° C./75% RH

| Compound | Solid form by XRPD after static storage [2, 5] | Solid form by XRPD after static storage [2, 4] | XRPD post-GVS [3] | further results |
| --- | --- | --- | --- | --- |
| O=C(NO)c1cnc(N2C[C@@H]3[C@H](C2)[C@H]3NCc2ccc3cc(F)ccc3n2)nc1 [Compound 1, N-hydroxy-2-{6-[(6-fluoro-quinolin-2-ylmethyl)-amino]-3-aza-bicyclo[3.1.0]hex-3-yl}pyrimidine-5-carboxamide] |  |  |  | Solubility in water ([1]; deionized water, 25° C., 24 hours, maximum final concentration 40 mg/ml, listed as Free base): essentially insoluble |
| O=C(NO)c1cnc(N2C[C@@H]3[C@H](C2)[C@H]3NCc2ccc3cc(F)ccc3n2)nc1 [Free Base Form A, N-hydroxy 2-{6-[(6-fluoro-quinolin-2-ylmethyl)-amino]-3-aza-bicyclo[3.1.0]hex-3-yl}pyrimidine-5-carboxamide] |  |  |  | pH of saturated solution [1]: (pH = 7.4) |
| O=C(NO)c1cnc(N2C[C@@H]3[C@H](C2)[C@H]3NCc2ccc3cc(F)ccc3n2)nc1 [Free Base Form B, N-hydroxy 2-{6-[(6-fluoro-quinolin-2-ylmethyl)-amino]-3-aza-bicyclo[3.1.0]hex-3-yl}pyrimidine-5-carboxamide] |  |  |  | pH of saturated solution [1]: (pH = 7.4) |
| O=C(NO)c1cnc(N2C[C@@H]3[C@H](C2)[C@H]3NCc2ccc3cc(F)ccc3n2)nc1 [Mesylate Form 2, N-hydroxy 2-{6-[(6-fluoro-quinolin-2-ylmethyl)-amino]-3-aza-bicyclo[3.1.0]hex-3-yl}pyrimidine-5-carboxamide] | unchanged; also recorded: Mesylate Form 2 | unchanged; also recorded: Mesylate Form 2 | unchanged; also recorded: XRPD Post-GVS: Mesylate Form 2 | HPLC purity after static storage [2, 4]: 99.5%; Solid form by XRPD after static storage ([2]; 7 days / 1 week at 25° C./97% RH, listed as Form 2): stable; HPLC purity after static storage [2, 5]: 99.5%; Solid form by XRPD after static storage ([2]; 7 days / 1 week at 40° C./75% RH, listed as Form 2): stable |
| O=C(NO)c1cnc(N2C[C@@H]3[C@H](C2)[C@H]3NCc2ccc3cc(F)ccc3n2)nc1 [Mesylate Form 3, N-hydroxy 2-{6-[(6-fluoro-quinolin-2-ylmethyl)-amino]-3-aza-bicyclo[3.1.0]hex-3-yl}pyrimidine-5-carboxamide] | conversion to Mesylate Form 5 | unchanged; also recorded: Mesylate Form 3 | XRPD Post-GVS: Poorly crystalline broad | Solubility residue pattern in FaSSGF (physchem): new solubility residue patterns; Solid form by XRPD after static storage ([2]; 7 days / 1 week at 25° C./97% RH, listed as Form 3): remained as Mesylate Form 3; Solid form by XRPD after static storage ([2]; 7 days / 1 week at 40° C./75% RH, listed as Form 3): convert to Mesylate Form 5; Water content after desorption ([3]; desorption cycle 1 down to 30% RH): 24.30%; Water loss, desorption cycle 1 ([3]; from 30-20% RH): Desorption Cycle 1 22% |
| O=C(NO)c1cnc(N2C[C@@H]3[C@H](C2)[C@H]3NCc2ccc3cc(F)ccc3n2)nc1 [Mesylate Form 4, N-hydroxy 2-{6-[(6-fluoro-quinolin-2-ylmethyl)-amino]-3-aza-bicyclo[3.1.0]hex-3-yl}pyrimidine-5-carboxamide] | mixture of Mesylate Form 1 and Form 4 | conversion to Mesylate Form 1; also recorded: converted to Mesylate Form 1 | conversion to Mesylate Form 1; also recorded: Post-GVS: Converted to Mesylate Form 1 by XRPD | Hysteresis in GVS ([3]; RH range of hysteresis): displaying hysteresis loop; Water content loss, desorption cycle 1 ([3]; between 20 to 10% RH): ~9% |
| O=C(NO)c1cnc(N2C[C@@H]3[C@H](C2)[C@H]3NCc2ccc3cc(F)ccc3n2)nc1 [Mesylate Form 5, N-hydroxy 2-{6-[(6-fluoro-quinolin-2-ylmethyl)-amino]-3-aza-bicyclo[3.1.0]hex-3-yl}pyrimidine-5-carboxamide] | remained as Mesylate Form 5; also recorded: Unchanged: Mesylate Form 5 | remained as Mesylate Form 5; also recorded: Unchanged: Mesylate Form 5 | unchanged; also recorded: stable; also recorded: XRPD Post-GVS: Mesylate Form 5 | Solubility residue pattern in FaSSGF (physchem): new solubility residue patterns |
| O=C(NO)c1cnc(N2C[C@@H]3[C@H](C2)[C@H]3NCc2ccc3cc(F)ccc3n2)nc1 [Mesylate Form 6, N-hydroxy 2-{6-[(6-fluoro-quinolin-2-ylmethyl)-amino]-3-aza-bicyclo[3.1.0]hex-3-yl}pyrimidine-5-carboxamide] | converted to Mesylate Form 1 | converted to Mesylate Form 1 |  |  |
| O=C(NO)c1cnc(N2C[C@@H]3[C@H](C2)[C@H]3NCc2ccc3cc(F)ccc3n2)nc1 [amorphous mesylate salt, N-hydroxy 2-{6-[(6-fluoro-quinolin-2-ylmethyl)-amino]-3-aza-bicyclo[3.1.0]hex-3-yl}pyrimidine-5-carboxamide] |  |  |  | Solid form by XRPD after static storage ([2]; 7 days / 1 week at 25° C./97% RH, listed as amorphous): largely amorphous; Solid form by XRPD after static storage ([2]; 7 days / 1 week at 40° C./75% RH, listed as amorphous): largely amorphous |

More lines, main results first:

| Solid form by XRPD after static storage [2, 5] | Compound | Solid form by XRPD after static storage [2, 4] | XRPD post-GVS [3] | further results |
| --- | --- | --- | --- | --- |
| converted to Mesylate Form 1 | O=C(NO)c1cnc(N2C[C@@H]3[C@H](C2)[C@H]3NCc2ccc3cc(F)ccc3n2)nc1 [Mesylate Form 7, N-hydroxy 2-{6-[(6-fluoro-quinolin-2-ylmethyl)-amino]-3-aza-bicyclo[3.1.0]hex-3-yl}pyrimidine-5-carboxamide] | converted to Mesylate Form 1 |  |  |
| converted to Mesylate Form 1 | O=C(NO)c1cnc(N2C[C@@H]3[C@H](C2)[C@H]3NCc2ccc3cc(F)ccc3n2)nc1 [Mesylate Form 8, N-hydroxy 2-{6-[(6-fluoro-quinolin-2-ylmethyl)-amino]-3-aza-bicyclo[3.1.0]hex-3-yl}pyrimidine-5-carboxamide] | converted to Mesylate Form 1 |  |  |
| Mesylate Form 1 | O=C(NO)c1cnc(N2C[C@@H]3[C@H](C2)[C@H]3NCc2ccc3cc(F)ccc3n2)nc1 [Mesylate Form 9, N-hydroxy 2-{6-[(6-fluoro-quinolin-2-ylmethyl)-amino]-3-aza-bicyclo[3.1.0]hex-3-yl}pyrimidine-5-carboxamide] | Poorly crystalline - Mesylate Form 1 |  | Appearance after static storage ([2]; 1 week at 25° C./97% RH): Sample appeared wet - white solid still present; Appearance after static storage ([2]; 1 week at 40° C./75% RH): color change to yellow; also recorded: Sample appeared ‘damp’ - yellow solid present |
